Our source for the mutagenic call values is PubChem BioAssay AID1259407 (Chemical Carcinogenesis Research Information System (CCRIS), 2018).

Activity calls are given as the source filed them. No rule for the calls is given here.

The subject of this data set is CCRIS mutagenicity, Ames/micronucleus/aberration tests. Put plainly: CCRIS mutagenicity studies.
Where [1] appears, read: Test System: AMES SALMONELLA TYPHIMURIUM, Strain/Indicator: TA98, Metabolic Activation: NONE, Method: PREINCUBATION
The mark [2] stands for this setting: Test System: AMES SALMONELLA TYPHIMURIUM, Strain/Indicator: TA100, Metabolic Activation: NONE, Method: PREINCUBATION
The mark [3] stands for this setting: Test System: AMES SALMONELLA TYPHIMURIUM, Strain/Indicator: TA1535, Metabolic Activation: NONE, Method: PREINCUBATION
Where [4] appears, read: Test System: AMES SALMONELLA TYPHIMURIUM, Strain/Indicator: TA100, Metabolic Activation: NONE, Method: STANDARD PLATE.
[5] abbreviates: Test System: AMES SALMONELLA TYPHIMURIUM, Strain/Indicator: TA100, Metabolic Activation: RAT, LIVER, S-9, AROCLOR 1254, Method: STANDARD PLATE.

With `Nc1ccccc1Cl`, the mutagenic call is “inactive; negative” (Test System: AMES SALMONELLA TYPHIMURIUM, Strain/Indicator: TA97, Metabolic Activation: HAMSTER, LIVER, S-9, AROCLOR 1254 (10%), Method: PREINCUBATION); “inactive; negative” (Test System: AMES SALMONELLA TYPHIMURIUM, Strain/Indicator: TA97, Metabolic Activation: HAMSTER, LIVER, S-9, AROCLOR 1254 (30%), Method: PREINCUBATION); “inactive; negative” (Test System: AMES SALMONELLA TYPHIMURIUM, Strain/Indicator: TA97, Metabolic Activation: NONE, Method: PREINCUBATION); “inactive; negative” (Test System: AMES SALMONELLA TYPHIMURIUM, Strain/Indicator: TA97, Metabolic Activation: RAT, LIVER, S-9, AROCLOR 1254 (10%), Method: PREINCUBATION); “inactive; negative” (Test System: AMES SALMONELLA TYPHIMURIUM, Strain/Indicator: TA97, Metabolic Activation: RAT, LIVER, S-9, AROCLOR 1254 (30%), Method: PREINCUBATION); “inactive; negative” (Test System: AMES SALMONELLA TYPHIMURIUM, Strain/Indicator: TA98, Metabolic Activation: HAMSTER, LIVER, S-9, AROCLOR 1254 (10%), Method: PREINCUBATION). For the same compound, the mutagenic call is “inactive; negative” (Test System: AMES SALMONELLA TYPHIMURIUM, Strain/Indicator: TA98, Metabolic Activation: HAMSTER, LIVER, S-9, AROCLOR 1254 (30%), Method: PREINCUBATION); “inactive; negative” under setting [1]; “inactive; negative” (Test System: AMES SALMONELLA TYPHIMURIUM, Strain/Indicator: TA98, Metabolic Activation: RAT, LIVER, S-9, AROCLOR 1254 (10%), Method: PREINCUBATION); “inactive; negative” (Test System: AMES SALMONELLA TYPHIMURIUM, Strain/Indicator: TA98, Metabolic Activation: RAT, LIVER, S-9, AROCLOR 1254 (30%), Method: PREINCUBATION); “inactive; negative” (Test System: AMES SALMONELLA TYPHIMURIUM, Strain/Indicator: TA100, Metabolic Activation: HAMSTER, LIVER, S-9, AROCLOR 1254 (10%), Method: PREINCUBATION); “inactive; negative” (Test System: AMES SALMONELLA TYPHIMURIUM, Strain/Indicator: TA100, Metabolic Activation: HAMSTER, LIVER, S-9, AROCLOR 1254 (30%), Method: PREINCUBATION). Besides, the mutagenic call under setting [2] was “inactive; negative”; the mutagenic call (Test System: AMES SALMONELLA TYPHIMURIUM, Strain/Indicator: TA100, Metabolic Activation: RAT, LIVER, S-9, AROCLOR 1254 (10%), Method: PREINCUBATION) is “inactive; negative”; the mutagenic call (Test System: AMES SALMONELLA TYPHIMURIUM, Strain/Indicator: TA100, Metabolic Activation: RAT, LIVER, S-9, AROCLOR 1254 (30%), Method: PREINCUBATION) is “inactive; negative”; the mutagenic call (Test System: AMES SALMONELLA TYPHIMURIUM, Strain/Indicator: TA1535, Metabolic Activation: HAMSTER, LIVER, S-9, AROCLOR 1254 (10%), Method: PREINCUBATION) was “inactive; negative”; the mutagenic call (Test System: AMES SALMONELLA TYPHIMURIUM, Strain/Indicator: TA1535, Metabolic Activation: HAMSTER, LIVER, S-9, AROCLOR 1254 (30%), Method: PREINCUBATION) was “inactive; negative”; the mutagenic call under setting [3] is “inactive; negative”. The mutagenic call is “inactive; negative” (Test System: AMES SALMONELLA TYPHIMURIUM, Strain/Indicator: TA1535, Metabolic Activation: RAT, LIVER, S-9, AROCLOR 1254 (10%), Method: PREINCUBATION); “inactive; negative” (Test System: AMES SALMONELLA TYPHIMURIUM, Strain/Indicator: TA1535, Metabolic Activation: RAT, LIVER, S-9, AROCLOR 1254 (30%), Method: PREINCUBATION); “active; positive” (Test System: CHINESE HAMSTER V-79, Strain/Indicator: V-79/8-AZAGUANINE, Metabolic Activation: NONE, Method: SUSPENSION/PLATE); “inactive; negative” (Test System: CHINESE HAMSTER V-79, Strain/Indicator: V-79/OUABAIN, Metabolic Activation: NONE, Method: SUSPENSION/PLATE); “inactive; negative” (Test System: MOUSE LYMPHOMA, Strain/Indicator: L5178Y (TK+/TK-), Metabolic Activation: NONE, Method: SUSPENSION/PLATE); “active; positive” (Test System: MOUSE LYMPHOMA, Strain/Indicator: L5178Y (TK+/TK-), Metabolic Activation: RAT, LIVER, S-9, AROCLOR 1254, Method: SUSPENSION/PLATE). Besides, where the note is “Test System: UDS RODENT HEPATOCYTES, Strain/Indicator: THY INCORP (NON-S-PHASE), Metabolic Activation: NONE, Method: AUTORADIOGRAPHY”, the mutagenic call is “inactive; negative”.

For the compound `O=C(OCCBr)[C@@H](O)[C@H](O)C(=O)OCCBr`, the mutagenic call was “active; positive” under setting [4] and “active; positive” under setting [5].

As to `C(=C\c1ccccc1)/c1ccccc1`, the mutagenic call by setting is: (Test System: AMES SALMONELLA TYPHIMURIUM, Strain/Indicator: TA98, Metabolic Activation: HAMSTER, LIVER, S-9, AROCLOR 1254, Method: PREINCUBATION) “inactive; negative”; under setting [1], “inactive; negative”; (Test System: AMES SALMONELLA TYPHIMURIUM, Strain/Indicator: TA98, Metabolic Activation: RAT, LIVER, S-9, AROCLOR 1254, Method: PREINCUBATION) “inactive; negative”; (Test System: AMES SALMONELLA TYPHIMURIUM, Strain/Indicator: TA100, Metabolic Activation: HAMSTER, LIVER, S-9, AROCLOR 1254, Method: PREINCUBATION) “inactive; negative”; under setting [2], “inactive; negative”; (Test System: AMES SALMONELLA TYPHIMURIUM, Strain/Indicator: TA100, Metabolic Activation: RAT, LIVER, S-9, AROCLOR 1254, Method: PREINCUBATION) “inactive; negative”. The mutagenic call is, setting by setting: (Test System: AMES SALMONELLA TYPHIMURIUM, Strain/Indicator: TA1535, Metabolic Activation: HAMSTER, LIVER, S-9, AROCLOR 1254, Method: PREINCUBATION) “inactive; negative”; under setting [3], “inactive; negative”; (Test System: AMES SALMONELLA TYPHIMURIUM, Strain/Indicator: TA1535, Metabolic Activation: RAT, LIVER, S-9, AROCLOR 1254, Method: PREINCUBATION) “inactive; negative”; (Test System: AMES SALMONELLA TYPHIMURIUM, Strain/Indicator: TA1537, Metabolic Activation: HAMSTER, LIVER, S-9, AROCLOR 1254, Method: PREINCUBATION) “inactive; negative”; (Test System: AMES SALMONELLA TYPHIMURIUM, Strain/Indicator: TA1537, Metabolic Activation: NONE, Method: PREINCUBATION) “inactive; negative”; (Test System: AMES SALMONELLA TYPHIMURIUM, Strain/Indicator: TA1537, Metabolic Activation: RAT, LIVER, S-9, AROCLOR 1254, Method: PREINCUBATION) “inactive; negative”.

As for `CC(=O)O[C@H]1[C@@H]2CC(C)(C)CC2=C(C=O)[C@@]2(C=O)C[C@@]12C`, the mutagenic call is, setting by setting: (Test System: AMES SALMONELLA TYPHIMURIUM, Strain/Indicator: TA98, Metabolic Activation: NONE, Method: STANDARD PLATE) “inactive; negative”; under setting [4], “inactive; negative”; (Test System: AMES SALMONELLA TYPHIMURIUM, Strain/Indicator: TA2637, Metabolic Activation: NONE, Method: STANDARD PLATE) “inactive; negative”; (Test System: CHINESE HAMSTER V-79, Strain/Indicator: V-79/6-THIOGUANINE (HGPRT), Metabolic Activation: NONE) “inactive; negative”.

In the case of `CC(O)C(C)[N+](=O)[O-]` (stereo unspecified), the mutagenic call was “inactive; negative” under setting [1]; “inactive; negative” (Test System: AMES SALMONELLA TYPHIMURIUM, Strain/Indicator: TA98, Metabolic Activation: RAT, LIVER, S-9, AROCLOR, Method: PREINCUBATION); “inactive; negative” under setting [2]; “inactive; negative” (Test System: AMES SALMONELLA TYPHIMURIUM, Strain/Indicator: TA102, Metabolic Activation: NONE, Method: PREINCUBATION); “inactive; negative” (Test System: AMES SALMONELLA TYPHIMURIUM, Strain/Indicator: TA102, Metabolic Activation: RAT, LIVER, S-9, AROCLOR, Method: PREINCUBATION).

As for `OC1Cc2cc3cccc4ccc5ccc1c2c5c43` (stereo unspecified), under “Test System: AMES SALMONELLA TYPHIMURIUM, Strain/Indicator: TA98, Metabolic Activation: HUMAN, LIVER, CYTOSOL, PAPS, Method: PREINCUBATION”, the mutagenic call was “active; positive”.

As for `O=S(=O)(O)NO`, the mutagenic call (Test System: AMES SALMONELLA TYPHIMURIUM, Strain/Indicator: G46, Metabolic Activation: RAT, LIVER, S-9, AROCLOR 1254, Method: STANDARD PLATE) was “inactive; negative” and the mutagenic call under setting [5] is “inactive; negative”.
